What all share (type): cell-based
For one assay, the system named is Moraxella catarrhalis. The assay can be described thus: MIC against Gram-negative bacteria: Moraxella catarrhalis. The conditions noted are these: 5×10^5 CFU/mL. The method in brief: (§1)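 MIC = lowest concentration of recombinant protein showing no growth. Test proteins: purified human-derived EGF domain proteins, two-fold dilution series, three wells per concentration; inoculum 5×10^5 CFU/mL in LB; incubation 37° C with shaking at 175 rpm.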

A further assay deals with Aeromonas hydrophila. The assay can be described thus: MIC against Gram-negative bacteria: Aeromonas hydrophila. The conditions noted are these: 5×10^5 CFU/mL. The essentials: as §1
The test system of the next assay is Klebsiella pneumonia. The assay can be described thus: MIC against Gram-negative bacteria: Klebsiella pneumonia. The conditions noted are these: 5×10^5 CFU/mL. The essentials: as §1
For the next assay, the system named is Proteus mirabilis. The assay can be described thus: MIC against Gram-negative bacteria: Proteus mirabilis. The conditions noted are these: 5×10^5 CFU/mL. The method in brief: as §1
Another assay has as its system E. coli BL21. The assay can be described thus: MIC against Gram-negative bacteria: E. coli BL21. The conditions noted are these: 5×10^5 CFU/mL. The essentials:
as §1

In the next assay the test system is E. coli DH5α. The assay can be described thus: Antibacterial activity: MIC and growth curve against E. coli DH5α in 96-well plate. The conditions noted are these: minimal inhibitory concentration against E. coli DH5α; 96-well plate, 5×10^5 CFU/mL, 37° C., judged after 8 h. The method in brief:
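Log-phase DH5α (OD600 about 0.5, 37° C, 185 rpm in LB) was pelleted, resuspended in fresh LB and seeded at 5×10^5 CFU/mL with recombinant protein at 50, 25 and 12.5 μg/mL (two-fold series), in triplicate. Plates were shaken at 175 rpm, 37° C, and OD600 was read every 30 min. MIC was the lowest concentration with no growth.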

Another assay deals with Enterobacter cloacae. The assay can be described thus: MIC against Gram-negative bacteria: Enterobacter cloacae. The conditions noted are these: 5×10^5 CFU/mL. The essentials: as §1
A further assay deals with Pseudomonas aeruginosa. The assay can be described thus: MIC against Gram-negative bacteria: Pseudomonas aeruginosa. The conditions noted are these: 5×10^5 CFU/mL. The method in brief:
as §1

For the next assay, the system named is Citrobacter diversus. The assay can be described thus: MIC against Gram-negative bacteria: Citrobacter diversus. The conditions noted are these: 5×10^5 CFU/mL. The method in brief:
as §1

In the next assay the test system is Proteus vulgaris. The assay can be described thus: MIC against Gram-negative bacteria: Proteus vulgaris. The conditions noted are these: 5×10^5 CFU/mL. The essentials: as §1
The subject of a further assay is Serratia marcescens. The assay can be described thus: MIC against Gram-negative bacteria: Serratia marcescens. The conditions noted are these: 5×10^5 CFU/mL. The method in brief:
as §1

Where [1] appears, read: 10 h cultivation at 37° C., two-fold serial dilution.
The mark [2] stands for this setting: Moraxella catarrhalis, 96-well plate, 37° C., 10 h.
The mark [3] stands for this setting: Aeromonas hydrophila, 96-well plate, 37° C., 10 h.
Setting [4] is: Klebsiella pneumonia, 96-well plate, 37° C., 10 h.
Setting [5] is: Proteus mirabilis, 96-well plate, 37° C., 10 h.
Where [6] appears, read: E. coli BL21, 96-well plate, 37° C., 10 h.
The mark [7] stands for this setting: Enterobacter cloacae, 96-well plate, 37° C., 10 h.
The mark [8] stands for this setting: Pseudomonas aeruginosa, 96-well plate, 37° C., 10 h.
The mark [9] stands for this setting: Citrobacter diversus, 96-well plate, 37° C., 10 h.
[10] abbreviates: Proteus vulgaris, 96-well plate, 37° C., 10 h.
Where [11] appears, read: Serratia marcescens, 96-well plate, 37° C., 10 h.
Where [12] appears, read: M. catarrhalis, 10 h cultivation at 37° C.
Where [13] appears, read: A. hydrophila, 10 h cultivation at 37° C.
Where [14] appears, read: K. pneumonia, 10 h cultivation at 37° C.
Where [15] appears, read: P. mirabilis, 10 h cultivation at 37° C.
[16] abbreviates: E. coli BL21, 10 h cultivation at 37° C.
[17] abbreviates: E. cloacae, 10 h cultivation at 37° C.
[18] abbreviates: P. aeruginosa, 10 h cultivation at 37° C.
Where [19] appears, read: C. diversus, 10 h cultivation at 37° C.
The mark [20] stands for this setting: P. vulgaris, 10 h cultivation at 37° C.
The mark [21] stands for this setting: S. marcescens, 10 h cultivation at 37° C.

What is called MIC is the lowest concentration found to suppress growth.

As for “PRT1053 (QLVSCPRNVSECSHDCVLTSEGPLCFCPEGSVLERDGKTCS; listed as Homo sapiens)”, in the assay on Moraxella catarrhalis (setting [1]), the “MIC M. catarrhalis” value was determined as 12.5 µg/mL. Also, in the assay with Aeromonas hydrophila (setting [1]), the “MIC A. hydrophila” value was found to be 50 µg/mL. The “MIC K. pneumonia” value in the assay with Klebsiella pneumonia (setting [1]) is 50 µg/mL. Further, the “MIC P. mirabilis” value with Proteus mirabilis (setting [1]) was determined as 100 µg/mL. Also, the “MIC E. coli BL21” value with E. coli BL21 (setting [1]) came out at 12.5 µg/mL. In addition, in the assay with E. coli DH5α, the MIC was determined as 12.5 µg/mL. For the same substance, the “MIC E. cloacae” value in the assay with Enterobacter cloacae (setting [1]) came out at 12.5 µg/mL. For the same substance, in the assay with Pseudomonas aeruginosa (setting [1]), the “MIC P. aeruginosa” value turned out to be 12.5 µg/mL. The “MIC C. diversus” value in the assay on Citrobacter diversus (setting [1]) came out at 12.5 µg/mL. For the same substance, the “MIC P. vulgaris” value in the assay with Proteus vulgaris (setting [1]) is 12.5 µg/mL. The “MIC S. marcescens” value in the assay on Serratia marcescens (setting [1]) is 100 µg/mL.
For the substance “PRT25 (PGVCRNGGTCTDAPNGGFRCQCPAGGAFEGPRCE; listed as Homo sapiens)”, the “MIC (μg/mL) M. catarrhalis” value in the assay on Moraxella catarrhalis (setting [2]) came out at 25 µg/mL. For the same substance, the “MIC (μg/mL) A. hydrophila” value against Aeromonas hydrophila (setting [3]) is 12.5 µg/mL. Moreover, the “MIC (μg/mL) K. pneumonia” value against Klebsiella pneumonia (setting [4]) worked out at 50 µg/mL. Also, in the assay with Proteus mirabilis (setting [5]), the “MIC (μg/mL) P. mirabilis” value stood at 12.5 µg/mL. In addition, in the assay with E. coli BL21 (setting [6]), the “MIC (μg/mL) E. coli BL21” value stood at 50 µg/mL. The substance also returned an MIC in the assay with E. coli DH5α of 50 µg/mL. The “MIC (μg/mL) E. cloacae” value with Enterobacter cloacae (setting [7]) came to 25 µg/mL. For the same substance, in the assay on Pseudomonas aeruginosa (setting [8]), the “MIC (μg/mL) P. aeruginosa” value amounted to 25 µg/mL. Moreover, in the assay on Citrobacter diversus (setting [9]), the “MIC (μg/mL) C. diversus” value is 100 µg/mL. Besides, the “MIC (μg/mL) P. vulgaris” value in the assay on Proteus vulgaris (setting [10]) worked out at 25 µg/mL. Also, the “MIC (μg/mL) S. marcescens” value in the assay on Serratia marcescens (setting [11]) came out at 12.5 µg/mL.
As for “PRT535 (CQCDIGGALSSMCSGPSGVCQCREHVVGKVCQRPENNYYFPDLHH; listed as Homo sapiens)”, in the assay with Moraxella catarrhalis (96-well plate, 37° C., 10 h), the “MIC against M. catarrhalis” value came out at 12.5 µg/mL. Also, the “MIC against A. hydrophila” value in the assay with Aeromonas hydrophila (96-well plate, 37° C., 10 h) is 12.5 µg/mL. The “MIC against K. pneumonia” value with Klebsiella pneumonia (96-well plate, 37° C., 10 h) worked out at 12.5 µg/mL. The “MIC against P. mirabilis” value against Proteus mirabilis (96-well plate, 37° C., 10 h) came out at 50 µg/mL. The “MIC against E. coli BL21” value in the assay on E. coli BL21 (96-well plate, 37° C., 10 h) turned out to be 25 µg/mL. The MIC in the assay on E. coli DH5α worked out at 12.5 µg/mL. For the same substance, the “MIC against E. cloacae” value against Enterobacter cloacae (96-well plate, 37° C., 10 h) stood at 50 µg/mL. For the same substance, in the assay with Pseudomonas aeruginosa (96-well plate, 37° C., 10 h), the “MIC against P. aeruginosa” value was 50 µg/mL. For the same substance, the “MIC against C. diversus” value with Citrobacter diversus (96-well plate, 37° C., 10 h) turned out to be 50 µg/mL. Further, the “MIC against P. vulgaris” value against Proteus vulgaris (96-well plate, 37° C., 10 h) was found to be 12.5 µg/mL. In the assay with Serratia marcescens (96-well plate, 37° C., 10 h), the “MIC against S. marcescens” value was found to be 50 µg/mL.
Regarding “PRT764 (AQDKCALGTHGCQHICVNDRTGSHHCECYEGYTLNADKKTCS; listed as Homo sapiens)”, the “MIC (μg/mL) M. catarrhalis” value in the assay with Moraxella catarrhalis (setting [12]) was determined as 12.5 µg/mL. Besides, the “MIC (μg/mL) A. hydrophila” value in the assay with Aeromonas hydrophila (setting [13]) came out at 12.5 µg/mL. Moreover, the “MIC (μg/mL) K. pneumonia” value in the assay with Klebsiella pneumonia (setting [14]) is 100 µg/mL. Besides, in the assay with Proteus mirabilis (setting [15]), the “MIC (μg/mL) P. mirabilis” value is 25 µg/mL. In addition, in the assay on E. coli BL21 (setting [16]), the “MIC (μg/mL) E. coli BL21” value worked out at 25 µg/mL. In addition, the MIC against E. coli DH5α was determined as 12.5 µg/mL. In addition, in the assay with Enterobacter cloacae (setting [17]), the “MIC (μg/mL) E. cloacae” value was 50 µg/mL. The “MIC (μg/mL) P. aeruginosa” value in the assay with Pseudomonas aeruginosa (setting [18]) stood at 50 µg/mL. Further, the “MIC (μg/mL) C. diversus” value against Citrobacter diversus (setting [19]) amounted to 50 µg/mL. In addition, the “MIC (μg/mL) P. vulgaris” value in the assay with Proteus vulgaris (setting [20]) was determined as 25 µg/mL. The “MIC (μg/mL) S. marcescens” value against Serratia marcescens (setting [21]) was found to be 50 µg/mL.
On to “PRT1260 (DINECLVNNGGCDHFCRNTVGSFECGCRKGYKLLTDERTCQ; listed as Homo sapiens)”, for which, in the assay on Moraxella catarrhalis (setting [2]), the “MIC against M. catarrhalis” value was found to be 50 µg/mL. The “MIC against A. hydrophila” value with Aeromonas hydrophila (setting [3]) amounted to 50 µg/mL. Also, the “MIC against K. pneumonia” value in the assay with Klebsiella pneumonia (setting [4]) came out at 12.5 µg/mL. Further, the “MIC against P. mirabilis” value against Proteus mirabilis (setting [5]) came out at 12.5 µg/mL. The “MIC against E. coli BL21” value against E. coli BL21 (setting [6]) stood at 50 µg/mL. Moreover, the minimal inhibitory concentration (MIC) with E. coli DH5α was determined as 25 µg/mL. Moreover, the “MIC against E. cloacae” value against Enterobacter cloacae (setting [7]) was 25 µg/mL. Moreover, the “MIC against P. aeruginosa” value with Pseudomonas aeruginosa (setting [8]) is 25 µg/mL. Also, the “MIC against C. diversus” value in the assay on Citrobacter diversus (setting [9]) came out at 12.5 µg/mL. For the same substance, in the assay with Proteus vulgaris (setting [10]), the “MIC against P. vulgaris” value amounted to 50 µg/mL. The “MIC against S. marcescens” value against Serratia marcescens (setting [11]) turned out to be 25 µg/mL.
As to “PRT878 (ADPLCAPARNPCANGGLCTVLAPGEVGCDCSHTGFGGKFCS; listed as Homo sapiens)”, in the assay with Moraxella catarrhalis (setting [12]), the “MIC (μg/mL) M. catarrhalis” value turned out to be 25 µg/mL. In the assay with Aeromonas hydrophila (setting [13]), the “MIC (μg/mL) A. hydrophila” value amounted to 50 µg/mL. The “MIC (μg/mL) K. pneumonia” value against Klebsiella pneumonia (setting [14]) stood at 50 µg/mL. Also, the “MIC (μg/mL) P. mirabilis” value against Proteus mirabilis (setting [15]) worked out at 50 µg/mL. In addition, in the assay with E. coli BL21 (setting [16]), the “MIC (μg/mL) E. coli BL21” value is 25 µg/mL. The substance further came in with an MIC against E. coli DH5α of 50 µg/mL. Further, the “MIC (μg/mL) E. cloacae” value in the assay with Enterobacter cloacae (setting [17]) is 12.5 µg/mL. For the same substance, the “MIC (μg/mL) P. aeruginosa” value against Pseudomonas aeruginosa (setting [18]) was 12.5 µg/mL. In addition, the “MIC (μg/mL) C. diversus” value in the assay with Citrobacter diversus (setting [19]) was 12.5 µg/mL. For the same substance, the “MIC (μg/mL) P. vulgaris” value in the assay on Proteus vulgaris (setting [20]) came to 25 µg/mL. In addition, the “MIC (μg/mL) S. marcescens” value in the assay on Serratia marcescens (setting [21]) turned out to be 12.5 µg/mL.

(Values after US9833497B2, “Human originated EGF domain proteins and use of the same” (CHENGDU SOURCEBIO LIMITED-LIABILITY COMPANY, priority 2013, dated 2017).)
